Consider eleven compounds from ChEMBL document CHEMBL1201862, “PubChem BioAssay data set” (2004).

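All cell lines were grown in 96-well plates and treated with compound for 48 hours. GI50 is the concentration that inhibits growth by half.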 Activity calls are given as the source filed them. No stated cut-off is given here; in the data, active = GI50 up to about 1.1 µM and inactive = higher. Where a SMILES comes first, the peptide text is derived from it. The star is where a group is joined. Boc = CC(C)(C)OC(=O)*; OBn = c1ccc(CO*)cc1

Some test systems named below: EKVX; HCT-15; HOP-92; HT-29; IGROV-1; KM12; MDA-MB-435; Malme-3M; NCI-H23; OVCAR-5; RPMI-8226; RXF 393; SF-268; SF-295; SK-MEL-5; SNB-75; UACC-257; UO-31; HL-60.
Holding throughout (test): inhibition of tumour cell growth, NCI panel, 48 h

For `Cn1c(=O)c2nc(CCCCc3nc4c(=O)n(C)c(=S)n(C)c4[nH]3)[nH]c2n(C)c1=S`, the GI50 is 23.4 µM (inactive) in the assay on EKVX; greater than 100 µM in the assay with HCT-15; 45.7 µM (inactive) in the assay on HOP-92; > 100 µM (inactive) in the assay with HT-29; > 100 µM (inactive) with IGROV-1; > 100 µM (inactive) in the assay with KM12. Further, the GI50 in the assay on MDA-MB-435, with Malme-3M, in the assay on NCI-H23, in the assay on OVCAR-5, in the assay on RPMI-8226 and with RXF 393 was > 100 µM (inactive) throughout. Besides, the GI50 is > 100 µM (inactive) in the assay with SF-268; 88.1 µM (inactive) in the assay on SF-295; > 100 µM (inactive) with SK-MEL-5; 23.4 µM (inactive) in the assay with SNB-75; > 100 µM (inactive) with UACC-257; > 100 µM (inactive) in the assay on UO-31.

For the compound `Cc1ccc(S(=O)(=O)NCc2cccc([N+](=O)[O-])c2)cc1`, the GI50 with EKVX is > 100 µM (inactive); in the assay on HCT-15, greater than 100 µM; in the assay on HL-60, 28.8 µM (inactive); in the assay on HOP-92 it was > 100 µM (inactive); with HT-29, > 100 µM (inactive); with IGROV-1, > 100 µM (inactive). The GI50 in the assay with KM12, in the assay with MDA-MB-435, in the assay with Malme-3M, in the assay on NCI-H23, with OVCAR-5 and in the assay with RPMI-8226 was > 100 µM (inactive) each time. Also, the GI50 with RXF 393 is > 100 µM (inactive); in the assay with SF-268, > 100 µM (inactive); in the assay with SF-295, > 100 µM (inactive); in the assay on SK-MEL-5, > 100 µM (inactive); with SNB-75 it was > 100 µM (inactive); in the assay with UACC-257 it was 75.9 µM (inactive).

With `COc1cc2c3c(c1)c1cc(OC)c(OC)cc1c[n+]3CC2`, the GI50 is 8.51 µM (inactive) in the assay on EKVX; greater than 50 µM with HCT-15; > 50 µM (inactive) in the assay with HL-60; 23 µM (inactive) in the assay on HT-29; 17.5 µM (inactive) in the assay on IGROV-1; 3.77 µM (inactive) in the assay with KM12. The GI50 is 25.8 µM (inactive) with MDA-MB-435; 0.991 µM (active) in the assay with Malme-3M; 7.29 µM (inactive) in the assay on NCI-H23; > 50 µM (inactive) with OVCAR-5; 18.7 µM (inactive) with RPMI-8226; 27.9 µM (inactive) in the assay with RXF 393. The GI50 was 0.0175 µM (active) in the assay on SF-268; 15.5 µM (inactive) in the assay on SF-295; 13.6 µM (inactive) with SK-MEL-5; 18.1 µM (inactive) in the assay on UACC-257; > 100 µM (inactive) in the assay on UO-31.

With `Cc1ccc(S(=O)(=O)NC(=O)Nc2ccc(S(N)(=O)=O)cc2S(N)(=O)=O)cc1`, the GI50 was > 100 µM (inactive) with EKVX; greater than 100 µM with HCT-15; > 100 µM (inactive) in the assay on HL-60; > 100 µM (inactive) in the assay on HOP-92; > 100 µM (inactive) with HT-29; > 100 µM (inactive) in the assay with IGROV-1. Besides, the GI50 in the assay on KM12, in the assay with MDA-MB-435, in the assay on Malme-3M, in the assay with NCI-H23, in the assay with OVCAR-5 and in the assay with RPMI-8226 was > 100 µM (inactive) in each case. Moreover, the GI50 in the assay on RXF 393, in the assay on SF-268, with SF-295, in the assay on SK-MEL-5, with SNB-75 and in the assay with UACC-257 was > 100 µM (inactive) each time. Further, in the assay on UO-31, the GI50 is > 100 µM (inactive).

For `COc1ccc2c(c1)O[C@@H]1C(O)Oc3cc(OC)c(OC)cc3[C@]1(O)C2=O` (some centres undefined), the GI50 in the assay on EKVX was 45.9 µM (inactive); in the assay with HCT-15, greater than 100 µM; with HL-60, 32.1 µM (inactive); with HT-29 it was 89.9 µM (inactive); with IGROV-1, > 100 µM (inactive); in the assay with KM12 it was 79.3 µM (inactive). Besides, the GI50 was 50.8 µM (inactive) in the assay on MDA-MB-435; 3.44 µM (inactive) in the assay on NCI-H23; > 100 µM (inactive) in the assay on OVCAR-5; 44.8 µM (inactive) in the assay on RPMI-8226; > 100 µM (inactive) in the assay on RXF 393; 34.3 µM (inactive) in the assay on SF-268. Besides, the GI50 in the assay on SF-295 is 24 µM (inactive); in the assay on SK-MEL-5, 10.5 µM (inactive); in the assay on SNB-75, > 100 µM (inactive); with UACC-257, 29 µM (inactive).

For the compound `COc1ccc(C(=O)N/N=C2\C(=O)c3c(C)cc(C)cc3CC2(C)C)cc1`, the GI50 with EKVX is 22.5 µM (inactive); with HCT-15, 22.8 µM; in the assay on HL-60, 18.3 µM (inactive); in the assay with HOP-92, 14.9 µM (inactive); in the assay with HT-29 it was 18.4 µM (inactive); in the assay with IGROV-1, 16.1 µM (inactive). Also, the GI50 was 19.1 µM (inactive) with KM12; 17.9 µM (inactive) with MDA-MB-435; 14.9 µM (inactive) in the assay on Malme-3M; 29.5 µM (inactive) with NCI-H23; 21 µM (inactive) in the assay on OVCAR-5; 17.1 µM (inactive) with RPMI-8226. Further, the GI50 with RXF 393 was 16.6 µM (inactive); in the assay on SF-268, 17.3 µM (inactive); in the assay with SF-295 it was 19.6 µM (inactive); with SK-MEL-5, 16.7 µM (inactive); in the assay with SNB-75, 21.4 µM (inactive); in the assay with UACC-257 it was 29.8 µM (inactive).

With `COC(=O)C(Cc1ccccc1)NP(=O)(O)OCC1OC(n2cc(I)c(=O)[nH]c2=O)CC1O` (centres undefined), the GI50 is > 100 µM (inactive) in the assay on EKVX; greater than 100 µM with HCT-15; > 100 µM (inactive) in the assay with HL-60; > 100 µM (inactive) in the assay on HOP-92; > 100 µM (inactive) in the assay with HT-29; > 100 µM (inactive) in the assay with IGROV-1. Further, the GI50 in the assay with KM12, in the assay with MDA-MB-435, in the assay on Malme-3M, in the assay on NCI-H23, in the assay with RPMI-8226 and in the assay on SF-268 was > 100 µM (inactive) throughout. In addition, the GI50 in the assay with SF-295, in the assay with SK-MEL-5, in the assay on SNB-75, with UACC-257 and in the assay on UO-31 was > 100 µM (inactive) throughout.

As to `CC1=NNC(=O)C1C1(C(=O)O)CC(c2c[nH]c3ccccc23)=NC(=S)N1` (centres undefined), the GI50 is 20 µM (inactive) in the assay on EKVX; 42.6 µM in the assay with HCT-15; 38.3 µM (inactive) with HL-60; 22.3 µM (inactive) with HOP-92; 26.3 µM (inactive) in the assay on HT-29; 0.224 µM (active) in the assay with IGROV-1. In addition, the GI50 in the assay on KM12 is 15.2 µM (inactive); in the assay with MDA-MB-435, 35.5 µM (inactive); in the assay on Malme-3M, 19 µM (inactive); in the assay with NCI-H23, 22.1 µM (inactive); with OVCAR-5, > 100 µM (inactive); in the assay on RPMI-8226, 24.9 µM (inactive). For the same compound, the GI50 with RXF 393 was 28.1 µM (inactive); with SF-268, 32.1 µM (inactive); with SF-295, 19.4 µM (inactive); in the assay on SK-MEL-5 it was 14.4 µM (inactive); in the assay on SNB-75, 16.6 µM (inactive); in the assay on UACC-257 it was 27.6 µM (inactive). Also, in the assay with UO-31, the GI50 is 29.8 µM (inactive).

For the compound `COc1ccc2[nH]cc(CCNC(=O)[C@H](Cc3ccc(O)cc3)NC(=O)[C@@H](NCC(F)(F)F)C(C)C)c2c1`, the GI50 is 99.8 µM (inactive) with EKVX; greater than 100 µM in the assay with HCT-15; 41.3 µM (inactive) in the assay on HL-60; 75.5 µM (inactive) in the assay on HOP-92; 52.5 µM (inactive) in the assay with HT-29; 97.7 µM (inactive) in the assay with IGROV-1. The GI50 in the assay with KM12 was > 100 µM (inactive); in the assay on MDA-MB-435, 25.2 µM (inactive); with Malme-3M it was > 100 µM (inactive); with NCI-H23 it was > 100 µM (inactive); in the assay with OVCAR-5, > 100 µM (inactive); with RPMI-8226, 34.4 µM (inactive). Besides, the GI50 in the assay with RXF 393 is > 100 µM (inactive); in the assay on SF-295, 39.7 µM (inactive); in the assay with UACC-257, 62.5 µM (inactive); in the assay on UO-31 it was > 100 µM (inactive).

Consider `COc1ccc(S(=O)(=O)Nc2ccc(-c3csc(N4C(=O)/C(=C/C=C\c5ccccc5)N=C4c4ccccc4)n3)cc2)cc1Cl`, for which the GI50 is 21.8 µM with HCT-15; 14 µM (inactive) in the assay with HL-60; 16.6 µM (inactive) with HOP-92; 56.8 µM (inactive) in the assay with HT-29; 19.9 µM (inactive) with IGROV-1; 29 µM (inactive) in the assay on KM12. In addition, the GI50 was 22.8 µM (inactive) in the assay with MDA-MB-435; 20.2 µM (inactive) in the assay on Malme-3M; 18.9 µM (inactive) in the assay with NCI-H23; 38.6 µM (inactive) in the assay on OVCAR-5; 22.3 µM (inactive) with RXF 393; 19.1 µM (inactive) in the assay on SF-268. Further, the GI50 in the assay with SF-295 was 38.5 µM (inactive); with SK-MEL-5 it was 27.4 µM (inactive); in the assay on SNB-75, 33.4 µM (inactive); in the assay on UACC-257, 33 µM (inactive); with UO-31, 28.3 µM (inactive).

In the case of `CC(C)CC(NC(=O)C(Cc1ccccc1)NC(=O)C(Cc1ccccc1)NC(=O)OC(C)(C)C)C(=O)OCc1ccccc1` (stereo not drawn) (Boc-Phe-Phe-Leu-OBn; configuration not given here), the GI50 is > 100 µM (inactive) in the assay on EKVX; greater than 100 µM in the assay with HCT-15; > 100 µM (inactive) with HL-60; > 100 µM (inactive) in the assay with HOP-92; > 100 µM (inactive) in the assay on HT-29; > 100 µM (inactive) with IGROV-1. Besides, the GI50 in the assay on KM12, in the assay on MDA-MB-435, in the assay on Malme-3M, in the assay on NCI-H23, in the assay with OVCAR-5 and with RPMI-8226 was > 100 µM (inactive) throughout. Further, the GI50 in the assay on RXF 393, with SF-268, in the assay with SF-295, with SK-MEL-5, in the assay with SNB-75 and in the assay with UACC-257 was > 100 µM (inactive) in each case. Moreover, the GI50 with UO-31 was > 100 µM (inactive).
